Data published in patent US7030242B2, “Selective inhibition of aggrecanase in osteoarthritis treatment” (Pfizer Inc, priority 1999, dated 2006).
Where two headings read alike, the source gives them in different places.

What was measured:
[1] = biological target: T1, Human recombinant collagenase-1 (Homo sapiens, UniProt P03956); assay: Inhibition of human collagenase-1 (recombinant collagenase-1 assay); type: biochemical; conditions: Table 2, read-out: MMP-1 (IC50 class)
T1 sequence (P03956 100-469): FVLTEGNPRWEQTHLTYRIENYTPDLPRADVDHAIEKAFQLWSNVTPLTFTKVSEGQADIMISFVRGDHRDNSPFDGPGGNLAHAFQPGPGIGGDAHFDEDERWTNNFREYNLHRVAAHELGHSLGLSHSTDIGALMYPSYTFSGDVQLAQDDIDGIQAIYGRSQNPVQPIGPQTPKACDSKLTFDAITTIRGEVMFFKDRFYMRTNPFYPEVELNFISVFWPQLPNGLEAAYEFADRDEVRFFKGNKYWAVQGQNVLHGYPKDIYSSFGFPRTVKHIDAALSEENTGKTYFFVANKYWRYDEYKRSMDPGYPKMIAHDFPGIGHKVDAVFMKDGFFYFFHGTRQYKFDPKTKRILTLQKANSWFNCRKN
Protocol: Inhibition of Human Collagenase-1 (Recombinant Collagenase-1 Assay)
This assay is used in the invention to measure the potency (IC50s) of compounds for collagenase-1.
Human recombinant collagenase-1 is activated with trypsin. The amount of trypsin is optimized for each lot of collagenase-1, but a typical reaction uses the following ratio: 5 mg trypsin per 100 mg of collagenase.
Stock solutions (10 mM) of inhibitors are made up in dimethylsulfoxide and then diluted using the following scheme: • 10 mM------>120 μM------>12 μM------>1.2 μM------>0.12 μM
Twenty-five microliters of each concentration is then added in triplicate to appropriate wells of a 96 well microfluor plate. The final concentration of inhibitor will be a 1:4 dilution after addition of enzyme and substrate. Positive controls (enzyme, no inhibitor) are set up in wells D7–D12 and negative controls (no enzyme, no inhibitors) are set in wells D1–D6.
Collagenase-1 is diluted to 240 ng/ml and […] is then added to appropriate wells of the microfluor plate. Final concentration of collagenase in the assay is 60 ng/ml.
Substrate (DNP-Pro-Cha-Gly-Cys(Me)-His-Ala-Lys(NMA)-NH2) is made as a 5 mM stock in dimethylsulfoxide and then diluted to 20 μM in assay buffer. The assay is initiated by the addition of […] substrate per well of the microfluor plate to give a final concentration of 10 μM.
Fluorescence readings (360 nm excitation, 460 nm emission) are taken at time 0 and then at about 20 minute intervals. The assay is conducted at a temperature of about 20 to about 25° C., preferably about 23° C. with a typical assay time of about 3 hours.
Fluorescence versus time is then plotted for both the blank and collagenase containing samples (data from triplicate determinations is averaged). A time point that provides a good signal (at least five fold over the blank) and that is on a linear part of the curve (usually around 120 minutes) is chosen to determine IC50 values. The zero time is used as a blank for each compound at each concentration and these values are subtracted from the 120 minute data. Data is plotted as inhibitor concentration versus % control (inhibitor fluorescence divided by fluorescence of collagenase alone ×100).

[2] = biological target: Human recombinant collagenase-3 (Homo sapiens, UniProt P45452); assay: Inhibition of human collagenase-3 (recombinant collagenase-3 assay); type: biochemical
Protocol: Inhibition of Human Collagenase-3 (Recombinant Collagenase-3 Assay)
This assay is used in the invention to measure the potency (IC50s) of compounds for collagenase-3.
Human recombinant collagenase-3 is activated with 2 mM APMA (p-aminophenyl mercuric acetate) for about 2.0 hours, at about 37° C. and is diluted to about 240 ng/ml in assay buffer (50 mM Tris, pH 7.5, 200 mM sodium chloride, 5 mM calcium chloride, […], 0.02% BRIJ-35). Twenty-five micro-liters of diluted enzyme is added per well of a 96 well microfluor plate.
The final concentrations in the assay are 30 μM, 3 μM, 0.3 μM, and 0.03 μM.
Fluorescence readings (360 nm excitation; 450 nm emission) are taken at time 0 and about every 5 minutes for about 1 hour.
Positive controls and negative controls are set up in triplicate as outlined in the collagenase-1 assay. IC50's are determined as per inhibition of human collagenase (collagenase-1).

aggrecanase = assay: Aggrecanase chondrocyte assay (35S-proteoglycan release, IL-1 stimulated); type: cell-based, porcine
Protocol: Aggrecanase Chondrocyte Assay
This assay is used in the invention to measure the potency (IC50s) of compounds for aggrecanase.
Primary porcine chondrocytes from articular joint cartilage are isolated by sequential trypsin and collagenase digestion followed by collagenase digestion overnight and are plated at 2×10^5 cells per well into 48 well plates with 5 μCi/ml ^35S (1000 Ci/mmol) sulphur in type I collagen coated plates. Cells are allowed to incorporate label into their proteoglycan matrix (approximately 1 week) at 37° C., under an atmosphere of 5% CO2.
The night before initiating the assay, chondrocyte monolayers are washed two times in DMEM/1% PSF/G and then allowed to incubate in fresh DMEM/1% FBS overnight.
The following morning chondrocytes are washed once in DMEM/1% PSF/G. The final wash is allowed to sit on the plates in the incubator while making dilutions. Media and dilutions can be made as described in the Table I below.
Plates are labeled and only the interior 24 wells of the plate are used. On one of the plates, several columns are designated as IL-1 (no drug) and Control (no IL-1, no drug). These control columns are periodically counted to monitor 35S-proteoglycan release. Control and IL-1 media are added to wells (450 μl) followed by compound (50 μl) so as to initiate the assay. Plates are incubated at 37° C., with a 5% CO2 atmosphere.
At 40–50% release (when CPM from IL-1 media is 4–5 times control media) as assessed by liquid scintillation counting (LSC) of media samples, the assay is terminated (about 9 to about 12 hours). Media is removed from all wells and placed in scintillation tubes. Scintillate is added and radioactive counts are acquired (LSC). To solubilize cell layers, 500 μL of papain digestion buffer (0.2 M Tris, pH 7.0, 5 mM EDTA, 5 mM DTT, and 1 mg/ml papain) is added to each well. Plates with digestion solution are incubated at 60° C. overnight. The cell layer is removed from the plates the next day and placed in scintillation tubes. Scintillate is then added, and samples counted (LSC).
The percent of released counts from the total present in each well is determined. Averages of the triplicates are made with control background subtracted from each well.

TACE = biological target: T2, TACE (Homo sapiens, UniProt P78536); assay: Inhibition of soluble TNF-α production (TACE whole blood assay); type: cell-based; conditions: Table 2, read-out: TACE (IC50 class)
T2 construct: Human mononuclear cells are isolated from anti-coagulated human blood; endogenous in cells; host or cells: human peripheral blood mononuclear cells, LPS stimulated
Protocol: Inhibition of Soluble TNF-α Production (TACE Whole Blood Assay)
This assay is used in the invention to measure the potency (IC50s) of compounds for TACE.
Human mononuclear cells are isolated from anti-coagulated human blood using a one-step Ficoll-hypaque separation technique. (2) The mononuclear cells are washed three times in Hanks balanced salt solution (HBSS) with divalent cations and re-suspended to a density of 2×10^6/ml in HBSS containing 1% BSA.
180 μL of the cell suspension was aliquoted into flat bottom 96 well plates (Costar). Additions of compounds and LPS (100 ng/ml final concentration) gives a final volume of 200 μL. All conditions are performed in triplicate. After about a four hour incubation at about 37° C. in an humidified CO2 incubator, plates are removed and centrifuged (about 10 minutes at approximately 250×g) and the supernatants removed and assayed for TNF-α using the R&D ELISA Kit.

[3] = Table 2, recombinant collagenase-3 assay, read-out: MMP-13 (IC50 class)
[4] = Table 2, aggrecanase chondrocyte assay, read-out: Agg (aggrecanase IC50 class)

T2 sequence (P78536 215-824): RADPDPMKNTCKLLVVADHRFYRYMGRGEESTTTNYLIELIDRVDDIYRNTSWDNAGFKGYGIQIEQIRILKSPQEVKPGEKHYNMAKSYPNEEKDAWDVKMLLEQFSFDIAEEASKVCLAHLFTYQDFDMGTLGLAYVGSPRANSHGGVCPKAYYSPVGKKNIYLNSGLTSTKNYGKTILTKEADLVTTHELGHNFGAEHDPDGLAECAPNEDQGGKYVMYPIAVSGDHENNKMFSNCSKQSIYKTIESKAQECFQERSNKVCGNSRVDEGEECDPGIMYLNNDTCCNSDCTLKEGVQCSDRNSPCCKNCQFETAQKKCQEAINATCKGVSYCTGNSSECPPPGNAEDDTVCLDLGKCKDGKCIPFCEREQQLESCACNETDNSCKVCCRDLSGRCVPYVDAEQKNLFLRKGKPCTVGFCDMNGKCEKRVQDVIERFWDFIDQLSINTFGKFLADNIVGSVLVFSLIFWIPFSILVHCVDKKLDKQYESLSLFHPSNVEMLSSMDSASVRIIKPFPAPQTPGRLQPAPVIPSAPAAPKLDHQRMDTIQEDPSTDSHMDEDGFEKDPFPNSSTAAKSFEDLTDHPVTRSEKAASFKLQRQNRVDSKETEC

| IC50 [1] | IC50 [2, 3] | IC50 (aggrecanase; [4]) | IC50 (TACE) | IC50 ([2]; human recombinant enzyme, fluorogenic peptide substrate, read-out: Collagenase-3 IC50) | IC50 (aggrecanase; primary porcine chondrocytes, IL-1 (5 ng/ml), read-out: Aggrecanase IC50) | Structure (SMILES) |
| --- | --- | --- | --- | --- | --- | --- |
| 20 to 200 nM | – | 10 to 20 nM | 20000 to 40000 nM | – | – | C[C@@]1(O)CCCN(S(=O)(=O)c2ccc(OCc3ccccc3F)cc2)[C@H]1C(=O)NO [(2R,3R) 1-[4-(2-fluoro-benzyloxy)-benzenesulfonyl]-3-hydroxy-3-methyl-piperidine-2-carboxylic acidhydroxyamide] |
| > 1000 nM | < 10 nM | 10 to 20 nM | < 10000 nM | – | – | Cc1c(F)cccc1COc1ccc(S(=O)(=O)N2CCC[C@@](C)(O)[C@@H]2C(=O)NO)cc1 [(2R,3R) 1-[4-(2-methyl-3-fluorobenzyloxy)-benzenesulfonyl]-3-hydroxy-3-methyl-piperidine-2-carboxylic acidhydroxyamide] |
| – | < 10 nM | 10 to 20 nM | < 10000 nM | – | – | Cc1ccc(F)cc1COc1ccc(S(=O)(=O)N2CCC[C@@](C)(O)[C@@H]2C(=O)NO)cc1 [(2R,3R) 1-[4-(2-methyl-5-fluorobenzyloxy)-benzenesulfonyl]-3-hydroxy-3-methyl-piperidine-2-carboxylic acidhydroxyamide] |
| 200 to 1000 nM | < 10 nM | < 10 nM | < 10000 nM | – | – | Cc1ccccc1COc1ccc(S(=O)(=O)N2CCC[C@@](C)(O)C2C(=O)NO)cc1 (stereo partly drawn) [(2R,3R) 1-[4-(2-methyl-benzyloxy)-benzenesulfonyl]-3-hydroxy-3-methyl-piperidine-2-carboxylic acidhydroxyamide] |
| – | < 10 nM | < 10 nM | < 10000 nM | – | – | Cc1cc(F)ccc1COc1ccc(S(=O)(=O)N2CCC[C@@](C)(O)[C@@H]2C(=O)NO)cc1 [(2R,3R) 1-[4-(4-fluoro-2-methyl-benzyloxy)-benzenesulfonyl]-3-hydroxy-3-methyl-piperidine-2-carboxylic acidhydroxyamide] |
| > 1000 nM | 10 to 20 nM | < 10 nM | < 10000 nM | – | – | Cc1ccc(F)cc1COc1ccc(S(=O)(=O)N2CC(=O)N[C@@H](C)[C@@H]2C(=O)NO)cc1 [(2R,3S) 1-[4-(2-methyl-5-fluoro-benzyloxy)-benzenesulfonyl]-3-methyl-5-oxo-piperazine-2-carboxylic acidhydroxyamide] |
| 200 to 1000 nM | < 10 nM | 10 to 20 nM | < 10000 nM | – | – | Cc1ccccc1COc1ccc(S(=O)(=O)N2CCC[C@](C)(O)[C@@H]2C(=O)NO)cc1 [(2R,3S) 1-[4-(2-methyl-benzyloxy)-benzenesulfonyl]-3-hydroxy-3-methyl-piperidine-2-carboxylic acidhydroxyamide] |
| – | – | – | – | 1 nM | – | CNC(=O)[C@H](Cc1ccc(OC)cc1)NC(=O)[C@@H](CC(=O)NO)CC(C)C [reference compound] |
| – | – | – | – | – | 53.5 nM | NS(=O)(=O)c1ccc(CCNC(=O)C(CC2CCCCC2)NC(=O)C(CCCc2ccccc2)CC(=O)NO)cc1 (centres unmarked) [reference compound] |

More lines, now with the values behind:

| Structure (SMILES) | IC50 [1] | IC50 [2, 3] | IC50 (aggrecanase; [4]) | IC50 (TACE) | IC50 ([2]; human recombinant enzyme, fluorogenic peptide substrate, read-out: Collagenase-3 IC50) | IC50 (aggrecanase; primary porcine chondrocytes, IL-1 (5 ng/ml), read-out: Aggrecanase IC50) |
| --- | --- | --- | --- | --- | --- | --- |
| CNC(=O)N1CCN(S(=O)(=O)c2ccc(OCc3cc(F)ccc3C)cc2)[C@@H](C(=O)NO)[C@@H]1C | > 1000 nM | < 10 nM | < 10 nM | < 10000 nM | – | – |
| C[C@@]1(O)CCCN(S(=O)(=O)c2ccc(OCc3ccc(Cl)cc3Cl)cc2)[C@H]1C(=O)NO [(2R,3R) 1-[4-(2,4-dichloro-benzyloxy)-benzenesulfonyl]-3-hydroxy-3-methyl-piperidine-2-carboxylic acidhydroxyamide] | 200 to 1000 nM | < 10 nM | < 10 nM | 10000 to 20000 nM | – | – |
| C[C@@]1(O)CCCN(S(=O)(=O)c2ccc(OCc3ccc(F)cc3F)cc2)[C@H]1C(=O)NO [(2R,3R) 1-[4-(2,4-difluoro-benzyloxy)-benzenesulfonyl]-3-hydroxy-3-methyl-piperidine-2-carboxylic acidhydroxyamide] | 200 to 1000 nM | < 10 nM | 10 to 20 nM | 10000 to 20000 nM | – | – |
| C[C@@]1(O)CCCN(S(=O)(=O)c2ccc(OCc3ccc(F)cc3Cl)cc2)[C@H]1C(=O)NO [(2R,3R) 1-[4-(2-chloro-4-fluoro-benzyloxy)-benzenesulfonyl]-3-hydroxy-3-methyl-piperidine-2-carboxylic acidhydroxyamide] | 200 to 1000 nM | < 10 nM | < 10 nM | 10000 to 20000 nM | – | – |
| C[C@@]1(O)CCCN(S(=O)(=O)c2ccc(OCc3ccccc3Cl)cc2)[C@H]1C(=O)NO [(2R,3R) 1-[4-(2-chloro-benzyloxy)-benzenesulfonyl]-3-hydroxy-3-methyl-piperidine-2-carboxylic acidhydroxyamide] | – | < 10 nM | < 10 nM | < 10000 nM | – | – |
| C[C@@]1(O)CCCN(S(=O)(=O)c2ccc(OCc3ccc(Cl)cc3F)cc2)[C@H]1C(=O)NO [(2R,3R) 1-[4-(2-fluoro-4-chloro-benzyloxy)-benzenesulfonyl]-3-hydroxy-3-methyl-piperidine-2-carboxylic acidhydroxyamide] | 20 to 200 nM | < 10 nM | < 10 nM | > 40000 nM | – | – |
